Data published in patent US20110183961A1, “AZETIDINE POLYSUBSTITUTED COMPOUNDS, PREPARATION THEREOF, AND THERAPEUTIC APPLICATION THEREOF” (SANOFI-AVENTIS, priority 2008, published 2011).

Experiments:
CB1 cannabinoid receptor = molecular target: T1, CB1 cannabinoid receptor (Mus musculus, UniProt P47746); test: inhibition of gastrointestinal transit induced by racemic CP55,940 in mice (charcoal bolus); assay type: in vivo; details: male CD1 mice, 3 hours after administration of the product, CP55,940 0.15 mg/kg ip
T1 construct: male CD1 mice receive the test product per os; from tissue; host or cells: whole animal, male CD1 mice (gastrointestinal tract)
T1 sequence (P47746 whole entry): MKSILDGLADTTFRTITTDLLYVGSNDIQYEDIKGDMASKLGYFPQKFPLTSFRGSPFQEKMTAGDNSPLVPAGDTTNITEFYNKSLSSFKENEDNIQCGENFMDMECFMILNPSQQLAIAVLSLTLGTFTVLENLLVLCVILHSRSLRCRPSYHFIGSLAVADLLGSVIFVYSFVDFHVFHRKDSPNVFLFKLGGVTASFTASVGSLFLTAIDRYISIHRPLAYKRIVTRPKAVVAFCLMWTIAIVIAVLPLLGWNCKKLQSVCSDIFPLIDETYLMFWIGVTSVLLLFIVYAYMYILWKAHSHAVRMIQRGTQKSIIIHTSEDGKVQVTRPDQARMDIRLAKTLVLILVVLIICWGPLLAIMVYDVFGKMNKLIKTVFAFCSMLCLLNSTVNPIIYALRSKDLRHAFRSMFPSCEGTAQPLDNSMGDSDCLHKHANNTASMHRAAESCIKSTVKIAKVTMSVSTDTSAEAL
Description: Their antagonist activity was also shown by means of the model of inhibition of gastrointestinal transit induced by racemic CP55,940 (1RS, 3RS, 4RS)-3-[hydroxy-2-(1,1-dimethylheptyl)phenyl]-4-(3-hydroxypropyl)cyclohexan-1-ol) in mice, according to the method described by Rinaldi-Carmona et al., J. Pharmacol. Exp. Ther. 2004, 310, 905-914. Briefly, male CD1 mice receive the test product per os 30 minutes or 2 hours before administration of the racemic CP55,940 agonist ((1RS, 3RS, 4RS)-3-[hydroxy-2-(1,1-dimethylheptyl)phenyl]-4-(3-hydroxypropyl)cyclohexan-1-ol) (0.15 mg/kg ip in 10% cremophor). After a further 30 minutes, the animals receive a charcoal bolus po. Thirty minutes later, the animals are sacrificed by euthanasia (CO2/O2) and the intestine is dissected. The progression of the charcoal bolus in the intestine is expressed as percentage of the total length of the intestine.

human CB1 receptor = molecular target: T2, human CB1 receptor (Homo sapiens, UniProt P21554); test: intracellular cyclic AMP functional test in U373MG cells (HTRF cAMP Dynamic Kit); assay type: cell-based; details: U373MG cells naturally expressing the human CB1 receptor
T2 construct: U373MG cells naturally expressing the human CB1 receptor; endogenous in cells; host or cells: U373MG cells
T2 sequence (P21554 whole entry): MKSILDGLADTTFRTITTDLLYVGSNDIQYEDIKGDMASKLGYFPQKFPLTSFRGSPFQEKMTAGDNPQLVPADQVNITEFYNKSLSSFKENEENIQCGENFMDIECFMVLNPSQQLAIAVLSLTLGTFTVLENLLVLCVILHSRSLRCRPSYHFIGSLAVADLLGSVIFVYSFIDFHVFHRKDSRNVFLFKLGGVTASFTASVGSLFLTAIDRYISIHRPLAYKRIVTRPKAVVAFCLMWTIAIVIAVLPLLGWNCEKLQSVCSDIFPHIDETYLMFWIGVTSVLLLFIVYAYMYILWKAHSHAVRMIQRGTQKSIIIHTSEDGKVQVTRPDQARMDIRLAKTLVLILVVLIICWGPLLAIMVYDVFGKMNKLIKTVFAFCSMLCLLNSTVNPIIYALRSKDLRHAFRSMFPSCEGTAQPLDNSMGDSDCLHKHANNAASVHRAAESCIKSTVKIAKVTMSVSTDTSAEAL
Description: The compounds according to the invention have been the subject of pharmacological assays which make it possible to determine the activity with respect to human CB1-type cannabinoid receptors. The effectiveness of the compounds of formula (I) was determined in a functional test in which the activity of the CB1 cannabinoid receptors is measured (intracellular cyclic AMP test). The test for detecting intracellular cyclic AMP in U373MG cells naturally expressing the human CB1 receptor was carried out as described in the reference: Bouaboula et al., 1995, J. Biol. Chem. 270:13973-13980. The HTRF cAMP Dynamic Kit from CisBio was used to quantify the intracellular cyclic AMP. In this test, the IC50 values are between 0.001 μM and 1 μM.

Row | Compound | melting point [°C] | IC50 (human CB1 receptor) [nM] | also measured
1 | CCN1CCCC1CNC(=O)c1cccc(N(C2CN(C(c3ccc(Cl)cc3)c3ccc(Cl)cc3)C2)S(C)(=O)=O)c1 (single isomer, unassigned; (+)) [Compound No. 6, (+)-3-[{1[bis(4-Chlorophenyl)methyl]azetidin-3-yl}(methyl-sulphonyl)amino]-N-{[1-ethylpyrrolidin-2-yl]methyl}benzamide] | 122 | – | –
2 | CCN1CCCC1CNC(=O)c1cccc(N(C2CN(C(c3ccc(Cl)cc3)c3ccc(Cl)cc3)C2)S(C)(=O)=O)c1 (single isomer, unassigned; (-)) [Compound No. 5, (−)-3-[{1-[bis(4-Chlorophenyl)methyl]azetidin-3-yl}(methyl-sulphonyl)amino]-N-{[1-ethylpyrrolidin-2-yl]methyl}benzamide] | 128 | – | percentage inhibition, gastrointestinal transit model (CB1 cannabinoid receptor; 1 mg/kg per os): 39%
3 | CS(=O)(=O)N(c1cc(F)cc(C(=O)NC2CCNC2=O)c1)C1CN(C(c2ccc(Cl)cc2)c2ccc(Cl)cc2)C1 (single isomer, unassigned; (-)) [Compound No. 16, (−)-3-[{1-[bis(4-Chlorophenyl)methyl]azetidin-3-yl}(methylsulphonyl)amino]-5-fluoro-N-[2-oxopyrrolidin-3-yl]benzamide] | – | 7 | –
4 | CS(=O)(=O)N(c1cccc(C(=O)NC2CCS(=O)(=O)C2)c1)C1CN(C(c2ccc(Cl)cc2)c2ccc(Cl)cc2)C1 (centres unmarked) [Compound No. 2, 3-[{1-[bis(4-Chlorophenyl)methyl]azetidin-3-yl}(methylsulphonyl)amino]-N-(1,1-dioxidotetrahydrothiophen-3-yl)benzamide] | – | 47 | percentage inhibition, gastrointestinal transit model (CB1 cannabinoid receptor; 2 mg/kg per os): 57%
5 | CS(=O)(=O)N(c1cc(F)cc(C(=O)NC2CCNC2=O)c1)C1CN(C(c2ccc(Cl)cc2)c2ccc(Cl)cc2)C1 (centres unmarked) [Compound No. 14, 3-[{1[bis(4-Chlorophenyl)methyl]azetidin-3-yl}(methyl-sulphonyl)amino]-5-fluoro-N-(2-oxopyrrolidin-3-yl)benzamide] | – | 9 | –
6 | CS(=O)(=O)N(c1cccc(C(=O)NCCN2CCNC2=O)c1)C1CN(C(c2ccc(Cl)cc2)c2ccc(Cl)cc2)C1 [compound 9, 3-[{1-[bis(4-chlorophenyl)methyl]azetidin-3-yl}(methylsulphonyl)amino]-N-[2-(2-oxoimidazolidin-1-yl)ethyl]benzamide] | 130 | 130 | –
7 | CS(=O)(=O)N(c1cccc(C(=O)NC2CCSCC2)c1)C1CN(C(c2ccc(Cl)cc2)c2ccc(Cl)cc2)C1 [compound 10, 3-[{1-[bis(4-chlorophenyl)methyl]azetidin-3-yl}(methylsulphonyl)amino]-N-(tetrahydro-2H-thiopyran-4-yl)benzamide] | 210 | – | –
8 | CS(=O)(=O)N(c1cccc(C(=O)NC2CCS(=O)(=O)CC2)c1)C1CN(C(c2ccc(Cl)cc2)c2ccc(Cl)cc2)C1 [compound 11, 3-[{1-[bis(4-chlorophenyl)methyl]azetidin-3-yl}(methylsulphonyl)amino]-N-(1,1-dioxidotetrahydro-2H-thiopyran-4-yl)benzamide] | 270 | – | –
